The source of these data is patent US20260021158A1, “GRANULAR COMPOSITIONS COMPRISING A PEPTIDE AND USES THEREOF” (TARSIER PHARMA LTD., priority 2022, published 2026).

This data set is described as follows: Assay of physical mixtures and extrudates for API stability by HPLC-UV. The note with it: after the grinding and sieving process as well as extrusion; physical mixture and extrudate. Type of data set: physicochemical. The protocol:
Physical mixtures were assayed for drug load and stability post grinding and sieving. 5 mg of sample was weighed into an aluminum weighing boat and transferred to a low-binding Eppendorf, followed by the addition of 50 uL of ACN. This was vortexed vigorously until the polymer had dissolved and the API precipitated. Next, water was added and the mixture vortexed vigorously again until the API dissolved completely, and polymer had precipitated. For the 18% drug loaded physical mixtures, 2950 μL water was added and for the 9% drug loaded physical mixtures, 1450 μL water was added. Lastly, the Eppendorfs were centrifuged for 30 seconds at a speed of 5′000 RPM.
Extrudates were assayed for drug load and stability by cutting them to specific weights to give the same end concentration as the standards (net peptide concentration of 0.3 mg/mL) after the addition of diluent. […] Lastly, the Eppendorfs were centrifuged and supernatants analyzed.
Drug load and stability of API in the extrudates were quantified by HPLC-UV as describe above. […] Additionally, the homogeneity of the entire length of the extrudate was assessed by cutting and weighing three 3 mm pieces from each section from 1 to 16 (N=16, n=3) and assaying in the same way as outlined above (Assay of physical mixtures by HPLC-UV). Lastly, the average diameter of the extrudates was measured by caliper.

`C[C@@H](O)[C@H](NN)C(=O)N[C@@H](CCCCN)C(=O)N1CCC[C@H]1C(=O)N[C@@H](CCCNC(=N)N)C(=O)C(=O)CNNC(Cc1ccc(O)c(/N=N/c2ccc(OP(=O)([O-])OCC[N+](C)(C)C)cc2)c1)C(=O)O` (stereo partly shown) [PTC, Dazdotuftide]: the “stability of API after processing” value was “stable”.
